According to ChEMBL document CHEMBL4619786, “Discovery of Novel Resorcinol Dibenzyl Ethers Targeting the Programmed Cell Death-1/Programmed Cell Death-Ligand 1 Interaction as Potential Anticancer Agents” (J Med Chem, 2020):

Legend:
[1] = test system: Mus musculus; test: (§1) Effect on activated cytotoxic T cell population in mouse B16/F10 cells implanted […] mouse assessed as CD3-positive cell population in spleen at 100 mg/kg, ig administered once daily via gavage for 15 days measured 24 hrs post-last dose by immunostaining based flow cytometry (reference value: 27.5 %); assay type: organism-based; conditions: in vivo, po
[2] = Volume of distribution at steady state in Sprague-Dawley rat at 1 mg/kg, iv by LC-MS/MS analysis; assay type: ADME, organism-based; conditions: in vivo, read-out: Vdss
[3] = test system: Mus musculus; test: as §1, with “CD3-positive/CD8-positive” for “CD3-positive”, “50” for “100”, “14.2” for “27.5”; assay type: organism-based; conditions: in vivo, po
[4] = test system: Mus musculus; test: Effect on spleen helper T cell population in mouse B16/F10 cells implanted […] mouse assessed as spleen cell population at 25 mg/kg, ig administered once daily via gavage for 15 days measured 24 hrs post-last dose by immunostaining based flow cytometry (reference value: 56.1 %); assay type: ADME, organism-based; conditions: in vivo, po
[5] = Tmax in Sprague-Dawley rat at 1 mg/kg, iv by LC-MS/MS analysis; assay type: ADME, organism-based; conditions: in vivo
[6] = test system: Mus musculus; test: Effect on spleen helper T cell population in mouse B16/F10 cells implanted […] mouse assessed as CD3-positive/CD4-positive cell population at 50 mg/kg, ig administered once daily via gavage for 15 days measured 24 hrs post-last dose by immunostaining based flow cytometry (reference value: 27.7%); assay type: ADME, organism-based; conditions: in vivo, po
[7] = target: T1, Programmed cell death protein 1/Programmed cell death 1 ligand 1 (Homo sapiens) (UniProt Q15116+Q9NZQ7); test: Ratio of EC50 for inhibition of human PD1/PDL1 protein-protein interaction in human PBMC-derived CD3-positive T cells co-cultured with human Hep3B cells expressing human PDL1/OS-8 assessed as increase in IFNgamma secretion to IC50 for inhibition of human PD1/PDL1 protein-protein interaction
[8] = test system: Mus musculus; test: (§2) Immunostimulatory activity in mouse B16/F10 cells implanted BALB/c mouse assessed as increase in activation of tumor-microenvironment mediated helper T cells in tumor by measuring CD3-positive cell population at 50 mg/kg, ig administered once daily via gavage for 15 days measured 24 hrs post-last dose by immunostaining based flow cytometry (reference value: 18.9%); assay type: functional
[9] = test system: Mus musculus; test: as §1, with “CD8-positive” for “CD3-positive”, “25” for “100”, “0.383” for “27.5”; assay type: organism-based; conditions: in vivo, po
[10] = Volume of distribution at steady state in Sprague-Dawley rat at 10 mg/kg, po by LC-MS/MS analysis; assay type: ADME, organism-based; conditions: in vivo
[11] = Oral bioavailability in Sprague-Dawley rat at 10 mg/kg by LC-MS/MS analysis; assay type: ADME, organism-based; conditions: in vivo
[12] = test system: Mus musculus; test: Effect on spleen helper T cell population in mouse B16/F10 cells implanted […] mouse assessed as CD4-positive cell population at 50 mg/kg, ig administered once daily via gavage for 15 days measured 24 hrs post-last dose by immunostaining based flow cytometry (reference value: 1.47 %); assay type: ADME, organism-based; conditions: in vivo, po
[13] = test system: Mus musculus; test: as §2, with “100” for “50”; assay type: functional
[14] = test system: Mus musculus; test: as §2, with “CD3-positive/CD4-positive” for “CD3-positive”, “6.15%)” for “18.9%)”; assay type: functional
[15] = test system: Mus musculus; test: Effect on spleen helper T cell population in mouse B16/F10 cells implanted […] mouse assessed as CD4-positive cell population at 25 mg/kg, ig administered once daily via gavage for 15 days measured 24 hrs post-last dose by immunostaining based flow cytometry (reference value: 1.47 %); assay type: ADME, organism-based; conditions: in vivo, po
[16] = Toxicity in mouse B16/F10 cells implanted […] mouse assessed as change in thymus weight at 25 to 100 mg/kg, ig administered once daily via gavage for 15 days measured 24 hrs post-last dose; assay type: organism-based; conditions: in vivo, po
[17] = Toxicity in mouse B16/F10 cells implanted […] mouse assessed as effect on physical activity at 25 to 100 mg/kg, ig administered once daily via gavage for 15 days measured during compound dosing; assay type: organism-based; conditions: in vivo, po, 360 h
[18] = test system: Mus musculus; test: as §2, with “CD3-positive/CD4-positive” for “CD3-positive”, “25” for “50”, “6.15%)” for “18.9%)”; assay type: functional
[19] = test system: B16-F10; test: Antitumor activity against mouse B16/F10 cells implanted in BALB/c mouse assessed as tumor growth inhibition at 50 mg/kg, ig administered once daily via gavage for 15 days relative to control; assay type: functional; conditions: B16-F10, po, 360 h, read-out: TGI
[20] = test system: Mus musculus; test: as §2, with “activated cytotoxic” for “helper”, “melanoma” for “CD3-positive”, “25” for “50”, “72.8%)” for “18.9%)”; assay type: functional
[21] = AUC (0 to t) in Sprague-Dawley rat at 10 mg/kg, po by LC-MS/MS analysis; assay type: ADME, organism-based; conditions: in vivo
[22] = Cmax in Sprague-Dawley rat at 10 mg/kg, po by LC-MS/MS analysis; assay type: ADME, organism-based; design: dose 10 mg/kg, route oral; conditions: in vivo
[23] = test system: Mus musculus; test: as §2, with “25” for “50”; assay type: functional
[24] = target: T1, Programmed cell death protein 1/Programmed cell death 1 ligand 1 (Homo sapiens); test: (§3) Inhibition of human PD1/PDL1 protein-protein interaction in human PBMC-derived CD3-positive T cells co-cultured with human Hep3B cells expressing human PDL1/OS-8 assessed as increase in IFNgamma secretion measured after 72 hrs by ELISA
[25] = target: Programmed cell death protein 1/Programmed cell death 1 ligand 1 (Homo sapiens, UniProt Q9NZQ7); test: as §3
Sequence of Programmed cell death protein 1/Programmed cell death 1 ligand 1 (Homo sapiens, UniProt Q9NZQ7) (Q15116 whole entry): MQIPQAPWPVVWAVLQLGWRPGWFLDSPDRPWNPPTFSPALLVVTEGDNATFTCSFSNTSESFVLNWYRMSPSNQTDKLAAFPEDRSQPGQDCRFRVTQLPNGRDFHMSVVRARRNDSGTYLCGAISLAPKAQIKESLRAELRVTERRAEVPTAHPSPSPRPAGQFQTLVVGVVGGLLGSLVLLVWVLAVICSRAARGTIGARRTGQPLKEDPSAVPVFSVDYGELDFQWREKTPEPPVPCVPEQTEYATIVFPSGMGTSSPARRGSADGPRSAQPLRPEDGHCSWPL
Sequence of Programmed cell death protein 1/Programmed cell death 1 ligand 1 (Homo sapiens, UniProt Q9NZQ7) (Q9NZQ7 whole entry): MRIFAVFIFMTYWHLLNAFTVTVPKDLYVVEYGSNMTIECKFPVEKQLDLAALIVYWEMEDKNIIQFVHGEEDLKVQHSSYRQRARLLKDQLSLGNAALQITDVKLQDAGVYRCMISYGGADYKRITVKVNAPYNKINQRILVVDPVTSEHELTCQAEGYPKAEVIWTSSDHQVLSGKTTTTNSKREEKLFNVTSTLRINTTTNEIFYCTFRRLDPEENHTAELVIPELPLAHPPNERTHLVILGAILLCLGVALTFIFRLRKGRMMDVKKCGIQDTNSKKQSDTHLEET

[26] = AUC (0 to infinity) in Sprague-Dawley rat at 1 mg/kg, iv by LC-MS/MS analysis; assay type: ADME, organism-based; design: dose 1 mg/kg, time infinity, route intravenous; conditions: in vivo
[27] = test system: Mus musculus; test: as §1, with “CD8-positive” for “CD3-positive”, “0.383” for “27.5”; assay type: organism-based; conditions: in vivo, po
[28] = target: Programmed cell death protein 1/Programmed cell death 1 ligand 1 (Mus musculus, UniProt Q9EP73); test: Inhibition of mouse biotin-labelled C-terminal Fc-fused/Avi-tagged PD1/Fc-fused PDL1 expressed in HEK293 cells protein-protein interaction measured after 2 hrs by ELISA; assay type: cell-based
Sequence of Programmed cell death protein 1/Programmed cell death 1 ligand 1 (Mus musculus, UniProt Q9EP73) (Q9EP73 whole entry, the tested form may be a part): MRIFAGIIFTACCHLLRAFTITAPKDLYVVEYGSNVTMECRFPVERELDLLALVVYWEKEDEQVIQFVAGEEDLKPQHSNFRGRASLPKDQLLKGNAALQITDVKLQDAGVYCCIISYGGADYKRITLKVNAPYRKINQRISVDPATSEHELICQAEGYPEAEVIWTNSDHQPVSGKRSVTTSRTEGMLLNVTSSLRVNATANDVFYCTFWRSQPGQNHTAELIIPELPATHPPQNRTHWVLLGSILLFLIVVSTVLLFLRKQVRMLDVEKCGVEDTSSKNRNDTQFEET
Sequence of Programmed cell death protein 1/Programmed cell death 1 ligand 1 (Mus musculus, UniProt Q9EP73) (Q02242 whole entry, further chain, the tested form may be a part): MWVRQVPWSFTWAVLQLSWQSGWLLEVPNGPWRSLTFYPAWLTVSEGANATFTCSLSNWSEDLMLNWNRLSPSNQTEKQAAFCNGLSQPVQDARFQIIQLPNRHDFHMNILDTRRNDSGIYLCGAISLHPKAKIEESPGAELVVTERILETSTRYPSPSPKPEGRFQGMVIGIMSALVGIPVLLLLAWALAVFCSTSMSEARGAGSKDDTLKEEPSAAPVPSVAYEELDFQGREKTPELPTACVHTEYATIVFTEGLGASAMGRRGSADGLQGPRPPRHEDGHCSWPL

[29] = test system: Mus musculus; test: as §1, with “CD3-positive/CD8-positive” for “CD3-positive”, “14.2” for “27.5”; assay type: organism-based; conditions: in vivo, po
[30] = test system: Mus musculus; test: as §2, with “melanoma” for “CD3-positive”, “100” for “50”, “70%)” for “18.9%)”; assay type: functional
[31] = test system: Mus musculus; test: as §2, with “activated cytotoxic” for “helper”, “melanoma” for “CD3-positive”, “72.8%)” for “18.9%)”; assay type: functional
[32] = Selectivity ratio of IC50 for inhibition of mouse biotin-labelled C-terminal Fc-fused/Avi-tagged PD1/Fc-fused PDL1 expressed in HEK293 cells protein-protein interaction to IC50 for inhibition of human PD1/PDL1 protein-protein interaction; assay type: cell-based

Vd [2]: 2.1 L/kg
Activity [4]: 59.9%
Tmax [5]: 4.98 min
Activity [6]: 28.2%
Vdss [10]: 290.3 L/kg
bioavailability [11]: 5%
Activity [12]: 1.18%
Activity [15]: 1.94%
AUC(0-t) [21]: 410 ng·h/mL
Cmax [22]: 69.5 ng/mL
AUC(0-inf) [26]: 1050 ng·h/mL
SMILES: Cc1c(COc2cc(OCc3cccc(C#N)c3)c(CNC(C)(C)C(=O)O)cc2Cl)cccc1-c1ccccc1
Activity [1]: 25.4%
Activity [3]: 15.5%
Ratio [7]: 240
Activity [8]: 17.7%
Activity [9]: 0.452%
Activity [13]: 28%
Activity [14]: 11.7%
Activity [16]: Non-Toxic
Activity [17]: Non-Toxic
Activity [18]: 15.4%
inhibition in vivo at 50 mg/kg [19]: 75%
Activity [20]: 59.4%
Activity [23]: 15%
inhibition [24]: Dose-dependent effect
EC50 [25]: 3 µM
Activity [27]: 0.44%
IC50 [28]: > 1 µM
Activity [29]: 11.6%
Activity [30]: 57%
Activity [31]: 64.9%
Ratio IC50 [32]: > 80
